The values that follow come from article PMC8206213, “An L-2-hydroxyglutarate biosensor based on specific transcriptional regulator LhgR” (Nature Communications, 2021).

The subject of experiment [1] is T1, LHGFR0N3C.
T1 construct: FRET sensor: LhgR truncated by three C-terminal amino acids between mTFP (N-terminus) and Venus (C-terminus)
As to the kind of experiment: Emission ratio of cytosolic sensor in HEK293FT cells permeabilized with 10 uM digitonin versus L-2-HG (10 nM to 10 mM) in Hank's balanced salt solution with 20 mM HEPES. To be noted: read-out: apparent Kd of LHGFR0N3C expressed in HEK293FT cells; SD, n = 3. The class given is cell-based. How it is done: To characterize the sensitivity and specificity of LHGFR expressed in HEK293FT cells, cells were trypsinized 48 h following transfection and suspended in 1× Hank’s balanced salt solution supplemented with 20 mM HEPES. […] Digitonin at a concentration of 10 μM was used to induce cell permeabilization and deplete intracellular L-2-HG for in vivo response curves construction. Then, the fluorescence intensities were determined by a SpectraMax i3 fluorescence plate reader (Molecular Devices, USA) with excitation at 430 nm and emission at 485 nm (mTFP) and 528 nm (Venus). Basal L-2-HG concentration in HEK293FT cells under physiological conditions was determined by substituting the emission ratios of non-permeabilized HEK293FT cells into the calibrated in vivo response curves.

In experiment [2] the target is T2, LHGFR0N7C.
T2 construct: FRET sensor: LhgR truncated by seven C-terminal amino acids between mTFP (N-terminus) and Venus (C-terminus)
As to the kind of experiment: FRET titration of purified sensor with L-2-HG (10 nM to 2 mM) added to filtered human serum, sensor in 50 mM Tris-HCl pH 7.4 mixed 3:1, Venus/mTFP emission ratio. The class given is binding. To be noted: SD, n = 3. How it is done:
(§1) Purified L-2-HG biosensors and different compounds were diluted by 50 mM Tris-HCl buffer (pH 7.4), mixed together in a black 96-well plate at a volume ratio of 3:1, and the fluorescence intensities were measured using an EnSight microplate reader (PerkinElmer, USA) with excitation at 430 nm, emission at 485 nm (mTFP) and 528 nm (Venus). The dose-response curves were fitted by OriginPro 2016 software (OriginLab) according to the following formula:1 R=Rmax+Rmin−Rmax/1+([L-2-HG]/Kd)^p where R, Rmin, and Rmax refer to the emission ratio of Venus to mTFP, ratio in the absence of L-2-HG, and ratio at saturation with L-2-HG, respectively. […] Emission spectra were recorded at 430 nm excitation, in steps of 2 nm. Excitation spectra were recorded using emission at 550 nm, excitation from 380 to 535 nm in steps of 2 nm.
(§2) In order to test the ability of LHGFR for quantitative analysis L-2-HG in different biological samples, purified LHGFR was diluted by 50 mM Tris-HCl (pH 7.4), while varying concentrations of L-2-HG were added into the serum and urine of a healthy adult and bacteria culture medium and filtered through a 0.22 μm filter, respectively. […] The mixtures of purified LHGFR and L-2-HG in different biological samples were then incubated in a black 96-well plate at a volume ratio of 3:1, and the emission ratios were determined using an EnSight microplate reader. […]

Experiment [3] deals with T1, LHGFR0N3C. The description is as above. The class given is binding. Particulars: SD, n = 3. As for the experimental part: as §1, §2
The target of experiment [4] is T2, LHGFR0N7C. As to the kind of experiment: FRET titration of purified sensor with L-2-HG (10 nM to 2 mM) added to filtered bacterial culture medium, sensor in 50 mM Tris-HCl pH 7.4 mixed 3:1, Venus/mTFP emission ratio. The class given is binding. Particulars: SD, n = 3. How it is done:
as §1, §2

The target of experiment [5] is T1, LHGFR0N3C. The description is as above. The class given is binding. To be noted: SD, n = 3. As for the experimental part:
as §1, §2

In experiment [6] the target is T2, LHGFR0N7C. The experiment can be described thus: FRET titration of purified sensor with L-2-HG (10 nM to 2 mM) added to human urine diluted with an equal volume of 50 mM Tris-HCl pH 7.4, mixed 3:1, Venus/mTFP emission ratio. The class given is binding. To be noted: SD, n = 3. How it is done:
as §1, §2

The target in experiment [7] is T1, LHGFR0N3C. The description is as above. The class given is binding. To be noted: SD, n = 3. As for the experimental part: as §1, §2
The test system of experiment [8] is T1, LHGFR0N3C. The experiment can be described thus: Emission ratio of sensor in living carbon-starved E. coli BL21(DE3) versus exogenous L-2-HG (100 nM to 10 mM) at 60 min, 37 °C. The class given is cell-based. Particulars: read-out: apparent Kd of LHGFR0N3C expressed in E. coli BL21(DE3); SD, n = 3. As for the experimental part: E. coli BL21(DE3) strains harboring either pETDuet-LHGFR0N3C, pETDuet-LHGFR0N7C, or pETDuet-LHGFR3N7C were grown to an OD600 of 0.6 in LB medium at 37 °C, after which the cells were induced overnight in the presence of 1 mM IPTG at 16 °C.
To characterize the sensitivity and specificity of LHGFR expressed in E. coli BL21(DE3), 90 μL cell suspensions following 8 h carbon starvation were mixed with 10 μL increasing concentrations of L-2-HG or other compounds, and then added into a black 96-well plate (total 100 μL/per well), the fluorescence intensities were determined using an EnSight microplate reader (PerkinElmer, USA) and the following instrument settings: excitation at 430 nm, emission at 485 nm (mTFP) and 528 nm (Venus), time intervals of 5 min, the temperature at 37 °C, and shake at 180 rpm. […] In order to analyze functions of CsiD and LhgO in endogenous L-2-HG anabolism and catabolism during carbon starvation, pETDuet-LHGFR0N3C, pETDuet-LHGFR0N7C, or pETDuet-LHGFR3N7C was transferred into E. coli MG1655(DE3) and its variants, and the assays were performed using the same procedure.

Experiment [9] addresses T2, LHGFR0N7C. The experiment can be described thus: FRET titration of purified sensor with L-2-HG in 50 mM Tris-HCl pH 7.4, Venus/mTFP emission ratio (excitation 430 nm, emission 528/485 nm), Hill-type fit. To be noted: SD, n = 3; read-out: apparent dissociation constant (Kd). The class given is binding. As for the experimental part: (§3) Purified L-2-HG biosensors and different compounds were diluted by 50 mM Tris-HCl buffer (pH 7.4), mixed together in a black 96-well plate at a volume ratio of 3:1, and the fluorescence intensities were measured using an EnSight microplate reader (PerkinElmer, USA) with excitation at 430 nm, emission at 485 nm (mTFP) and 528 nm (Venus). The dose-response curves were fitted by OriginPro 2016 software (OriginLab) according to the following formula:1 R=Rmax+Rmin−Rmax/1+([L-2-HG]/Kd)^p where R, Rmin, and Rmax refer to the emission ratio of Venus to mTFP, ratio in the absence of L-2-HG, and ratio at saturation with L-2-HG, respectively. The [L-2-HG], Kd, and p refer to the L-2-HG concentration, apparent dissociation constant, and Hill slope, respectively. Emission spectra were recorded at 430 nm excitation, in steps of 2 nm. Excitation spectra were recorded using emission at 550 nm, excitation from 380 to 535 nm in steps of 2 nm.
(§4) Fig. 3 Design and optimization of the LHGFR. a Schematic representation of the predicted conformational change of LhgR-based L-2-HG biosensor LHGFR in the absence or presence of L-2-HG. […] The emission ratio of Venus to mTFP increased (430 nm excitation) after L-2-HG binding. c Heap map of the truncating the N-terminal and C-terminal amino acids of LhgR to ∆Rmax. […] The emission ratio changes of both biosensors were measured in the presence of 240 μM D-lactate, L-lactate, L-2-HG, D-2-HG, or different intermediates of the TCA cycle and L-lysine catabolism. g, h Reversal of L-2-HG binding with LHGFR by conversion of L-2-HG to 2-KG. […] All data shown are means ± s.d. (n = 3 independent experiments).
(§5) Supplementary Figure 6 Dose-response curves of purified LHGFR variants truncated three to seven C-terminal amino acids in LhgR for L-2-HG. Dose-response curves of LHGFR0N3C […]
(§6) concentrations (10 nM to 2 mM) of L-2-HG were indicated. The maximum ratio change (∆Rmax), apparent dissociation constant (Kd), and R2 were shown in each figure. All data shown are means ± s.d. (n = 3 independent experiments). Source data are provided as a […]

Experiment [10] has as its target T1, LHGFR0N3C. The experiment is described as above. The experiment is classed as binding. To be noted: SD, n = 3; read-out: apparent dissociation constant (Kd). As for the experimental part: as §3, §4, §5, §6
Experiment [11] concerns the target T3, LHGFR0N0C.
T3 construct: FRET sensor: full-length LhgR between mTFP (N-terminus) and Venus (C-terminus); pETDuet-1, Ni-chelating purification
The experiment is described as above. The experiment is classed as binding. Particulars: SD, n = 3; read-out: apparent dissociation constant (Kd). As for the experimental part:
as §3, §4, §5, §6

Take `O=C(O)CC[C@H](O)C(=O)O` [L-2-HG, L-2-hydroxyglutarate]: the Kd worked out at 43.8 µM in [1]; 8.35 µM in [2]; 27.8 µM in [3]; 6.65 µM in experiment [4]; 36.9 µM in [5]; 7.77 µM in experiment [6]. For the same molecule, the Kd in experiment [7] amounted to 29.5 µM; in [8] it was 892 µM; in experiment [9] it was 7.22 µM; in experiment [10], 29.3 µM; in experiment [11], 2.74 µM.
